# Experimental data reported in the Bradley open melting point set (2014).
# “And” between values parts separate entries of the source, which are not always exact repeats. Identical values can stand only once.
row,Structure (SMILES),melting point
1,"O=Cc1ccc(Cl)c(Cl)c1 [3,4-dichlorobenzaldehyde]",44 °C
2,"ClCc1ccc(Cl)c(Cl)c1 [3,4-dichlorobenzyl chloride]",-3 °C
3,"Oc1ccc(Cl)c(Cl)c1 [3,4-dichlorophenol]",68 °C and 66 °C
4,"O=C(O)/C=C/c1ccc(F)c(F)c1 [3,4-difluorocinnamic acid]",195 °C
5,"Nc1ccc2c(c1)OCCCO2 [3,4-dihydro-2h-1,5-benzodioxepin-7-amine]",79 °C
6,"O=C(O)CC1Sc2ccccc2NC1=O (stereo unspecified) [3,4-dihydro-3-oxo-2h-1,4-benzothiazine-2-acetic acid]",188 °C
7,"COc1ccc(/C=C/[N+](=O)[O-])cc1OC [3,4-dimethoxy-beta-nitrostyrene]",140 °C
8,"COc1ccc(C(C)=O)cc1OC [3,4-dimethoxyacetophenone]",51 °C
9,"COc1ccc(C=O)cc1OC [3,4-dimethoxybenzaldehyde]",44 °C
10,"COc1ccc(B(O)O)cc1OC [3,4-dimethoxybenzeneboronic acid]",240 °C
11,"COc1ccc(C(=O)O)cc1OC [3,4-dimethoxybenzoic acid]",181 °C
12,"Cc1ccc(C(N)=O)cc1C [3,4-dimethylbenzamide]",102 °C
13,"Cc1ccc(B(O)O)cc1C [3,4-dimethylbenzeneboronic acid]",220 °C
14,"CC1=CC(=O)CC(C)(C)C1 [3,5,5-Trimethylcyclohex-2-en-1-one]",-8 °C
15,"O=Cc1cc(Cl)cc(Cl)c1 [3,5-Dichlorobenzaldehyde]",68 °C
16,"O=C(O)c1cc([N+](=O)[O-])cc([N+](=O)[O-])c1 [3,5-Dinitrobenzoic acid]",206 °C
17,"CC(C)(C)c1cc(C=O)cc(C(C)(C)C)c1O [3,5-di-tert-butyl-4-hydroxybenzaldehyde]",188 °C
18,"O=C(O)c1cc(Br)cc(Br)c1 [3,5-dibromobenzoic acid]",220 °C
19,"Cc1ccc(C(=O)c2cc(Cl)cc(Cl)c2)c(C)c1 [3,5-dichloro-2',4'-dimethylbenzophenone]",57 °C
20,"Nc1cc(Cl)cc(Cl)c1 [3,5-dichloroaniline]",53 °C
21,"O=S(=O)(Cl)c1cc(Cl)cc(Cl)c1 [3,5-dichlorobenzenesulfonyl chloride]",32 °C
22,"N#Cc1cc(Cl)cc(Cl)c1 [3,5-dichlorobenzonitrile]",66 °C

row,Structure (SMILES),melting point
1,"O=C(Cl)c1cc(Cl)cc(Cl)c1 [3,5-dichlorobenzoyl chloride]",26 °C
2,"COc1c(F)cc(F)cc1B(O)O [3,5-difluoro-2-methoxybenzeneboronic acid]",114 °C
3,"O=C(O)C(O)c1cc(F)cc(F)c1 (stereo unspecified) [3,5-difluoromandelic acid]",136 °C
4,"N#Cc1cc(I)c(O)c(I)c1 [3,5-diiodo-4-hydroxybenzonitrile]",204 °C
5,"COc1cc(C(=O)NN)cc(OC)c1O [3,5-dimethoxy-4-hydroxybenzhydrazide]",156 °C
6,"COc1cc(OC)cc(C(C)=O)c1 [3,5-dimethoxyacetophenone]",34 °C
7,"COc1cc(C=O)cc(OC)c1 [3,5-dimethoxybenzaldehyde]",46.3 °C
8,"COc1cc(O)cc(OC)c1 [3,5-dimethoxyphenol]",47 °C
9,"Cc1cc(C)cc(C=O)c1 [3,5-dimethylbenzaldehyde]",9 °C
10,"Cc1cc(C)cc(B(O)O)c1 [3,5-dimethylbenzeneboronic acid]",236 °C
11,"Cc1noc(C)c1B(O)O [3,5-dimethylisoxazole-4-boronic acid]",107 °C
12,"Cc1cc(C)cc(O)c1 [3,5-dimethylphenol]",63.4 °C and 65.5 °C
13,"O=C(O)c1cc([N+](=O)[O-])cc([N+](=O)[O-])c1 [3,5-dinitrobenzoic acid]",206 °C
14,"O=C(O)c1cc([N+](=O)[O-])cc([N+](=O)[O-])c1O [3,5-dinitrosalicylic acid]",171 °C
15,"Clc1ccc(Cl)nn1 [3,6-dichloropyridazine]",68 °C
16,"Cc1cc(O)c(C)c(=O)o1 [3,6-dimethyl-4-hydroxy-2-pyrone]",210 °C
17,"O=NN1CN2CN(C1)CN(N=O)C2 [3,7-Dinitroso-1,3,5,7-tetraazabicyclo[3.3.1]nonane]",207 °C
18,O=CC(=Cc1ccco1)c1ccccc1 [3-(2-furyl)-2-phenylpropenal],59 °C
19,"CN(C)C(=O)Nc1ccc(Cl)c(Cl)c1 [3-(3,4-dichlorophenyl)-1,1-dimethylurea]",158 °C
20,"COc1ccc(C(=O)CCC(=O)O)cc1OC [3-(3,4-dimethoxybenzoyl)propionic acid]",160 °C
21,O=C(O)CCc1cccc(O)c1 [3-(3-hydroxyphenyl)propionic acid],112 °C
22,O=C(O)CCC(=O)c1ccc(Br)cc1 [3-(4-bromobenzoyl)propionic acid],147 °C

row,Structure (SMILES),melting point
1,O=C(O)CCc1ccc(C(=O)O)cc1 [3-(4-carboxyphenyl)propionic acid],290 °C
2,N#CC(=Cc1ccc(Cl)cc1)C(N)=O [3-(4-chlorophenyl)-2-cyanoacrylamide],101 °C
3,Cc1ccc(C(=O)CCC(=O)O)cc1 [3-(4-methylbenzoyl)propionic acid],126 °C
4,CN(C)c1cccc(O)c1 [3-(Dimethylamino)phenol],83 °C
5,O=S(=O)(O)CCCN1CCOCC1 [3-(Morpholin-4-yl)propane-1-sulfonic acid],277 °C
6,CC12CCC3C(CCC4CC(OCc5ccccc5)CCC43C)C1CCC2=O (stereo unspecified) [3-(benzyloxy)androstan-17-one],220 °C
7,"Cc1cc(C)c(C)c(CCl)c1C [3-(chloromethyl)-1,2,4,5-tetramethylbenzene]",70.5 °C
8,OCc1cccc(B(O)O)c1 [3-(hydroxymethyl)benzeneboronic acid],96 °C
9,COC(=O)c1cccc(B(O)O)c1 [3-(methoxycarbonyl)benzeneboronic acid],136 °C
10,O=C1OC(Sc2ccccc2)c2ccccc21 (stereo unspecified) [3-(phenylsulfanyl)-2-benzofuran-1(3H)-one],103 °C
11,OB(O)c1cccc(OC(F)(F)F)c1 [3-(trifluoromethoxy)benzeneboronic acid],80 °C
12,Nc1cccc(C(F)(F)F)c1 [3-(trifluoromethyl)aniline],6 °C
13,OB(O)c1cccc(C(F)(F)F)c1 [3-(trifluoromethyl)benzeneboronic acid],164 °C
14,N#Cc1cccc(C(F)(F)F)c1 [3-(trifluoromethyl)benzonitrile],16 °C
15,O=C(O)Cc1cccc(C(F)(F)F)c1 [3-(trifluoromethyl)phenylacetic acid],78 °C
16,Nc1cccc(O)c1 [3-Aminophenol],125 °C
17,"CC(=O)C=Cc1ccc([N+](=O)[O-])o1 [3-Buten-2-one, 4- (5-nitro-2-furanyl)-]",194 °C
18,C=CCCl [3-Chloroprop-1-ene],-134 °C
19,CC12CCC3C(CCC4CC(O)CCC43C)C1CCC2=O (stereo unspecified) [3-Hydroxyandrostan-17-one],174 °C
20,COc1cccc(C(=O)O)c1 [3-Methoxybenzoic acid],106 °C
21,Cc1cccc(C(=O)O)c1 [3-Methylbenzoic acid],112 °C
22,CC(=O)OCCC(C)C [3-Methylbutyl acetate],-100 °C
